# Reference: patent publication US8192962B2, “Processes for detecting toxic substances” (Daikin Industries, Ltd., priority 2001, dated 2012)
# Test system: Genes belonging to other category
# Test: DNA chip mRNA expression in yeast, genes belonging to other category (Table 9)
# Format: cell-based, Saccharomyces cerevisiae S288C
# In short: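 Values are treated/untreated fluorescence ratios from a whole-genome yeast DNA chip hybridized over 12 hours at 65° C with Cy3- or Cy5-labelled cDNA from poly(A) mRNA. Log-phase S288C yeast in YPD at 25° C had received a single toxic chemical for two hours, dosed to slow growth without killing.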
structure (smiles),measurement,setting,value
"S=C([S-])NCCNC(=S)[S-].[Zn+2] [(11), zinc N,N′-ethylenebis(dithiocarbamate)]",The level of expressed mRNA in the presence of chemical substance/The level of expressed mRNA in the absence of chemical substance,yeast gene YNL083W,0.9
same,The level of expressed mRNA in the presence of chemical substance/The level of expressed mRNA in the absence of chemical substance,yeast gene YNL093W,1.6
same,The level of expressed mRNA in the presence of chemical substance/The level of expressed mRNA in the absence of chemical substance,yeast gene YNL135C,0.7
same,The level of expressed mRNA in the presence of chemical substance/The level of expressed mRNA in the absence of chemical substance,yeast gene YNL147W,1.2
same,The level of expressed mRNA in the presence of chemical substance/The level of expressed mRNA in the absence of chemical substance,yeast gene YNL196C,0.7
same,The level of expressed mRNA in the presence of chemical substance/The level of expressed mRNA in the absence of chemical substance,yeast gene YNL333W,2.0
same,The level of expressed mRNA in the presence of chemical substance/The level of expressed mRNA in the absence of chemical substance,yeast gene YNR010W,1.4
same,The level of expressed mRNA in the presence of chemical substance/The level of expressed mRNA in the absence of chemical substance,yeast gene YNR030W,1.2
same,The level of expressed mRNA in the presence of chemical substance/The level of expressed mRNA in the absence of chemical substance,yeast gene YNR034W,1.3
same,The level of expressed mRNA in the presence of chemical substance/The level of expressed mRNA in the absence of chemical substance,yeast gene YNR035C,1.5
same,The level of expressed mRNA in the presence of chemical substance/The level of expressed mRNA in the absence of chemical substance,yeast gene YNR047W,0.6
same,The level of expressed mRNA in the presence of chemical substance/The level of expressed mRNA in the absence of chemical substance,yeast gene YNR069C,2.5
same,The level of expressed mRNA in the presence of chemical substance/The level of expressed mRNA in the absence of chemical substance,yeast gene YOL005C,1.6
same,The level of expressed mRNA in the presence of chemical substance/The level of expressed mRNA in the absence of chemical substance,yeast gene YOL013C,1.4
same,The level of expressed mRNA in the presence of chemical substance/The level of expressed mRNA in the absence of chemical substance,yeast gene YOL164W,1.0
same,The level of expressed mRNA in the presence of chemical substance/The level of expressed mRNA in the absence of chemical substance,yeast gene YOR003W,0.7
same,The level of expressed mRNA in the presence of chemical substance/The level of expressed mRNA in the absence of chemical substance,yeast gene YOR023C,0.9
same,The level of expressed mRNA in the presence of chemical substance/The level of expressed mRNA in the absence of chemical substance,yeast gene YOR036W,1.3
same,The level of expressed mRNA in the presence of chemical substance/The level of expressed mRNA in the absence of chemical substance,yeast gene YOR058C,1.4
same,The level of expressed mRNA in the presence of chemical substance/The level of expressed mRNA in the absence of chemical substance,yeast gene YOR117W,1.2
same,The level of expressed mRNA in the presence of chemical substance/The level of expressed mRNA in the absence of chemical substance,yeast gene YOR124C,1.2
same,The level of expressed mRNA in the presence of chemical substance/The level of expressed mRNA in the absence of chemical substance,yeast gene YOR132W,1.3
same,The level of expressed mRNA in the presence of chemical substance/The level of expressed mRNA in the absence of chemical substance,yeast gene YOR148C,1.3
same,The level of expressed mRNA in the presence of chemical substance/The level of expressed mRNA in the absence of chemical substance,yeast gene YOR157C,1.6
same,The level of expressed mRNA in the presence of chemical substance/The level of expressed mRNA in the absence of chemical substance,yeast gene YOR181W,1.0
same,The level of expressed mRNA in the presence of chemical substance/The level of expressed mRNA in the absence of chemical substance,yeast gene YOR185C,1.2
same,The level of expressed mRNA in the presence of chemical substance/The level of expressed mRNA in the absence of chemical substance,yeast gene YOR198C,1.4
same,The level of expressed mRNA in the presence of chemical substance/The level of expressed mRNA in the absence of chemical substance,yeast gene YOR230W,1.6
same,The level of expressed mRNA in the presence of chemical substance/The level of expressed mRNA in the absence of chemical substance,yeast gene YOR259C,1.0
same,The level of expressed mRNA in the presence of chemical substance/The level of expressed mRNA in the absence of chemical substance,yeast gene YOR261C,2.1
same,The level of expressed mRNA in the presence of chemical substance/The level of expressed mRNA in the absence of chemical substance,yeast gene YOR265W,1.3
same,The level of expressed mRNA in the presence of chemical substance/The level of expressed mRNA in the absence of chemical substance,yeast gene YOR288C,1.4
same,The level of expressed mRNA in the presence of chemical substance/The level of expressed mRNA in the absence of chemical substance,yeast gene YOR298W,0.1
same,The level of expressed mRNA in the presence of chemical substance/The level of expressed mRNA in the absence of chemical substance,yeast gene YOR312C,0.8
same,The level of expressed mRNA in the presence of chemical substance/The level of expressed mRNA in the absence of chemical substance,yeast gene YOR355W,1.2
same,The level of expressed mRNA in the presence of chemical substance/The level of expressed mRNA in the absence of chemical substance,yeast gene YOR383C,1.4
same,The level of expressed mRNA in the presence of chemical substance/The level of expressed mRNA in the absence of chemical substance,yeast gene YPL089C,0.9
same,The level of expressed mRNA in the presence of chemical substance/The level of expressed mRNA in the absence of chemical substance,yeast gene YPL105C,0.6
same,The level of expressed mRNA in the presence of chemical substance/The level of expressed mRNA in the absence of chemical substance,yeast gene YPL109C,−0.2
same,The level of expressed mRNA in the presence of chemical substance/The level of expressed mRNA in the absence of chemical substance,yeast gene YPL149W,1.2
same,The level of expressed mRNA in the presence of chemical substance/The level of expressed mRNA in the absence of chemical substance,yeast gene YPL154C,1.8
same,The level of expressed mRNA in the presence of chemical substance/The level of expressed mRNA in the absence of chemical substance,yeast gene YPL177C,1.4
same,The level of expressed mRNA in the presence of chemical substance/The level of expressed mRNA in the absence of chemical substance,yeast gene YPL230W,3.1
same,The level of expressed mRNA in the presence of chemical substance/The level of expressed mRNA in the absence of chemical substance,yeast gene YPR028W,1.4
same,The level of expressed mRNA in the presence of chemical substance/The level of expressed mRNA in the absence of chemical substance,yeast gene YPR066W,0.9
same,The level of expressed mRNA in the presence of chemical substance/The level of expressed mRNA in the absence of chemical substance,yeast gene YPR081C,0.9
same,The level of expressed mRNA in the presence of chemical substance/The level of expressed mRNA in the absence of chemical substance,yeast gene YPR103W,0.9
same,The level of expressed mRNA in the presence of chemical substance/The level of expressed mRNA in the absence of chemical substance,yeast gene YPR108W,1.8
same,The level of expressed mRNA in the presence of chemical substance/The level of expressed mRNA in the absence of chemical substance,yeast gene YPR155C,0.9
same,The level of expressed mRNA in the presence of chemical substance/The level of expressed mRNA in the absence of chemical substance,yeast gene YPR185W,0.9
